{"source": "patent US20090155785A1", "about": "“REAL-TIME COLORIMETRIC SCREENING INHIBITORS OF ENDONUCLEASE WITH GOLD NANOPARTICLE SUBSTRATE” (NORTHWESTERN UNIVERSITY, priority 2007, published 2009)", "key": {"DNase I [1]": {"test_system": "DNase I", "experiment": "Colorimetric DNase I inhibition assay, hybridized gold nanoparticle aggregates without linker oligonucleotide (Example 1)", "format": "biochemical", "conditions": "inhibitor 1 μM, DNase I 15 units/ml, extinction at 520 nm, room temperature; control 6.8 min", "description": "In addition to screening enzyme activity, one can easily use the assay to evaluate the efficiency of inhibitors of DNase I. In a typical screening experiment, DNase I (15 units/ml) was added to solutions of the DNA-linked gold nanoparticle aggregates in the presence of one of the following DNA binding molecules: amsacrine (AMSA), anthraquinone-2-carboxylic acid (AQ2A), 9-aminoacridine (9-AA), ellipticine (EIPT), daunorubicin (DNR), ethidium bromide (EB) and 4′,6-diamidedino-2-phenylindole (DAPI) (1 μM), respectively. These DNA binding molecules are known to inhibit DNase I. (See R. A. Ikeda, P. B. Dervan, J. Am. Chem. Soc., 104: 296 (1982); S. M. Forrow, M. Lee, R. L. Souhami, J. A. Hartley, Chem. Biol. Interact., 96: 125 (1995); P. G. Baraldi, A. Bovero, F. Fruttarolo, D. Preti, M. A. Tabrizi, M. G. Pavani, R. Romagnoli, Med. Res. Rev., 24: 475 (2004)). Extinction was monitored at 520 nm as a function of time (sample scan rate=5 min^−), and the color of the solution was followed with the naked eye. The time at which 50% of the aggregate is hydrolyzed (TH) can be used as a measure of inhibition (FIG. 6). The inhibitors decrease DNase I activity and increase the TH and, therefore, the corresponding time required for a color change in the solution. […] The trend is determined based on TH, which is consistent with the relative binding affinities of the inhibitors to DNA, as determined by measuring the melting temperature of the duplex DNA in the presence of each DNA-binding molecule (FIG. 6 and Table 1 below).\nThe relative binding affinities of the inhibitors to DNA are consistent with the hydrolysis time (TH) of the aggregates by DNase I in the presence of a specific inhibitor. TH is determined by measuring the extinction at 520 nm and determining when half of the particles composing the aggregates have been released.\nAuNP-1 and AuNP-2 were functionalized with 3′-thiol-modified 30-mer oligonucleotides (AuNP-1, DNA-1 sequence: 5′-[…]-A10-SH-3′, SEQ ID NO: 1; AuNP-2, DNA-2 sequence: 5′-[…]-A10-SH-3′, SEQ ID NO:2) using previously reported methods. (See J. J. Storhoff, R. Elghanian, R. C. Mucic, C. A. Mirkin, R. L. Letsinger, J. Am. Chem. Soc., 120: 1959 (1998)). After combining 1 ml aliquots of the two probes, AuNP-1 and AuNP-2 (each at 3 nM), in hybridization buffer (50 mM Tris-HCl buffer pH 7.0, 2 mM MgCl2), the mixture was heated to 90° C. and held at this temperature for 10 minutes.\nThe pre-prepared gold nanoparticle aggregates were washed (3 times) with DNase I buffer (10 mM sodium phosphate buffer pH 7.0, 0.75 mM MgCl2). They were then resuspended in 1 ml of DNase I buffer. A 10 μL aliquot of each of the endonuclease inhibitors (0.1 mM) was then added to a 1 ml solution of the aggregates, respectively, and incubated for 10 minutes. The assay was initiated by adding DNase I, and the hydrolysis kinetics were monitored by UV-vis spectroscopy (Cary 5000, Varian). The solution was continuously stirred with a magnetic stir bar at room temperature to keep the aggregates suspended."}, "DNase I [2]": {"test_system": "DNase I", "experiment": "Colorimetric DNase I inhibition assay, ligated gold nanoparticle aggregates with linker oligonucleotide (Example 2)", "format": "biochemical", "conditions": "for t (releasing time; time required to hydrolyze 50% of the aggregates): inhibitor 1 μM, DNase I 15 units/ml, extinction at 520 nm, ligated aggregates, control 9.5 min", "description": "A typical screening experiment was slated by adding the DNase I to solutions of the gold nanoparticle aggregates in the presence of one of the DNA binding molecules, amsacrine (AMSA), anthrquinone-2-carboxylic acid (AQ2A), 9-aminoacridine (9-AA), ellipticine (EIPT), daunorubicin (DNR), ethidium bromide (EB) and 4′,6-diamidedino-2-phenylindole (DAPI) (1 μM), respectively. The color changes of the solutions were monitored at 520 nm by UV-vis spectrometry over time (sample scan rate=2 min^−1). The inhibitors can decrease DNase I activity and increase the hydrolysis time and the corresponding time required for a color change in the solution. Thus, we could determine the relative activities of different endonuclease inhibitors by measuring the time required to hydrolyze 50% of the aggregates (t). […] The hydrolysis time is consistent with relative binding affinities of inhibitors to DNA by determining the melting temperature (Tm) of duplex DNA at 260 nm in the presence of each DNA-binding molecule.\nHigh-throughput screening is widely used for the identification of hit compounds from combinatorial libraries. (See P. A. Johnston, P. A. Johnston, Drug Discovery Today, 7: 353 (2002); D. L. Boger, J. Deshamais, K. Capps, Angew. Chem. Int. Ed., 42: 4138 (2003); S. Wang, T. B. Sim, Y.-S. Kim, Y.-T. Chang, Cum Opin. Cham. Biol., 8: 371 (2004)). We have examined the application of the gold nanoparticle aggregates for high throughput screening of endonuclease inhibitors by visual inspection. […] Thus, we can determine potencies of inhibitor using color change as a function of time. […] The trend of potencies of inhibitors was determined to be DAPI>EB>DNR>9-AA, EIPT, and AQ2A>AMSA, which is consistent with the control experiments involving serial analysis of each inhibitors with nanoparticle-free duplex DNA.\nTwo separate types of DNA-AuNPs were prepared by functionalizing 13 nm gold nanoparticles with two different thiol-modified oligonucleotide strands, AuNP-3 and AuNP-4. AuNP-3 was functionalized with 3′-hydroxyl-modified and 5′-thiol-modified 15-mer oligonucleotides (DNA-3 sequence: 5′-SH-A10-CGTTAGGACTTACGC-OH-3′, SEQ ID NO:3). DNA-3 is complementary to one-half of the 30-mer linker oligonucleotide (DNA-linker oligonucleotide sequence: 5′ […]-3′, SEQ ID NO:5). AuNP-4 was functionalized with 3′-thiolated and 5′-phosphorylated 15-mer oligonucleotides (DNA-4: 5′-PO4^3−-TTATAACTATTCCTA-A10-SH-3′, SEQ ID NO:4) that are complementary to the other half of the linker-oligonucleotide. After combining the three components, AuNP-3 and AuNP-4 (each at 3 nM) as well as the linker-oligonucleotides (3 μM), in the presence of ligation buffer (50 mM Tris-HCl buffer pH 7.5, 5 mM MgCl2, […], 0.05 mg/ml BSA, T4 DNA Ligase 4.000 units/ml), the DNAs assemble to form a three-strand DNA hybridization complex. First the linker-oligonucleotide acts as templates to co-align the 3′-hydroxyl group of the DNA-3 and the 5′-phosphate group of the DNA-4. Then the T4 DNA Ligase catalyzes the formation of a phosphodiester bond between the 3′-hydroxyl and the 5′-phosphate groups of DNA-3 and DNA-4, covalently joining DNA-3 and DNA-4 to form a 30-mer oligonucleotide. This method yield stable 30-base-pair double stranded links between the AuNPs. Since the nanoparticles aggregate, a red-to-purple color change can be observed.\nThe prepared gold nanoparticle aggregate was washed (3 times) with DNase I buffer (10 mM sodium phosphate buffer pH 7.0, 0.25 mM MgCl2). The assay was initiated by adding DNase I (10-50 units/ml) and the hydrolysis kinetics were monitored by a UV-vis spectrum at the extinction of 520 nm with stirring at room temperature."}, "duplex DNA": {"test_system": "duplex DNA", "experiment": "Melting temperature of duplex DNA (without nanoparticles) in the presence of DNA binding molecule", "conditions": "DNA duplex 2.0 μM, sodium phosphate buffer 10 mM pH 7.0, NaCl 100 mM, DNA binding molecule 5.0 μM, control 61.0"}}}
{"compound": "Cc1c2ccncc2c(C)c2c1[nH]c1ccccc12", "note": "[EIPT, ellipticine]", "values": [{"measurement": "TH (time at which 50% of the aggregate is hydrolyzed by DNase I)", "setting": "DNase I [1]", "result": 25.2, "unit": "min"}, {"measurement": "t (releasing time; time required to hydrolyze 50% of the aggregates)", "setting": "DNase I [2]", "result": 15.0, "unit": "min"}, {"measurement": "Tm (melting temperature of duplex DNA in the presence of endonuclease inhibitor)", "setting": "duplex DNA; Table 1", "result": 63.0, "unit": "°C"}, {"measurement": "Tm (melting temperature of duplex DNA in the presence of endonuclease inhibitor)", "setting": "duplex DNA; Table 2, at 260 nm", "result": 63.0, "unit": "°C"}]}
{"compound": "Nc1c2ccccc2nc2ccccc12", "note": "[9-AA, 9-aminoacridine]", "values": [{"measurement": "TH (time at which 50% of the aggregate is hydrolyzed by DNase I)", "setting": "DNase I [1]", "result": 24.6, "unit": "min"}, {"measurement": "t (releasing time; time required to hydrolyze 50% of the aggregates)", "setting": "DNase I [2]", "result": 16.0, "unit": "min"}, {"measurement": "Tm (melting temperature of duplex DNA in the presence of endonuclease inhibitor)", "setting": "duplex DNA; Table 1", "result": 62.5, "unit": "°C"}, {"measurement": "Tm (melting temperature of duplex DNA in the presence of endonuclease inhibitor)", "setting": "duplex DNA; Table 2, at 260 nm", "result": 62.5, "unit": "°C"}]}
{"compound": "COc1cccc2c1C(=O)c1c(O)c3c(c(O)c1C2=O)C[C@@](O)(C(C)=O)C[C@@H]3O[C@H]1C[C@H](N)[C@H](O)[C@H](C)O1", "note": "[DNR, daunorubicin]", "values": [{"measurement": "TH (time at which 50% of the aggregate is hydrolyzed by DNase I)", "setting": "DNase I [1]", "result": 43.2, "unit": "min"}, {"measurement": "t (releasing time; time required to hydrolyze 50% of the aggregates)", "setting": "DNase I [2]", "result": 31.5, "unit": "min"}, {"measurement": "Tm (melting temperature of duplex DNA in the presence of endonuclease inhibitor)", "setting": "duplex DNA; Table 1", "result": 65.5, "unit": "°C"}, {"measurement": "Tm (melting temperature of duplex DNA in the presence of endonuclease inhibitor)", "setting": "duplex DNA; Table 2, at 260 nm", "result": 65.5, "unit": "°C"}]}
{"compound": "N=C(N)c1ccc(-c2cc3ccc(C(=N)N)cc3[nH]2)cc1", "note": "[DAPI, 4′,6-diamidedino-2-phenylindole]", "values": [{"measurement": "TH (time at which 50% of the aggregate is hydrolyzed by DNase I)", "setting": "DNase I [1]", "result": 101.2, "unit": "min"}, {"measurement": "t (releasing time; time required to hydrolyze 50% of the aggregates)", "setting": "DNase I [2]", "result": ">1440", "unit": "min"}, {"measurement": "color change of aggregate solution by visual inspection after adding DNase I (FIG. 10)", "setting": "DNase I [2]; visual inspection, purple to red as a function of reaction time, no or slow change indicates inhibition", "result": "remains light purple throughout the examination time"}, {"measurement": "Tm (melting temperature of duplex DNA in the presence of endonuclease inhibitor)", "setting": "duplex DNA; Table 1", "result": 77.0, "unit": "°C"}, {"measurement": "Tm (melting temperature of duplex DNA in the presence of endonuclease inhibitor)", "setting": "duplex DNA; Table 2, at 260 nm", "result": 77.0, "unit": "°C"}]}
{"compound": "O=C(O)c1ccc2c(c1)C(=O)c1ccccc1C2=O", "note": "[AQ2A, anthraquinone-2-carboxylic acid]", "values": [{"measurement": "TH (time at which 50% of the aggregate is hydrolyzed by DNase I)", "setting": "DNase I [1]", "result": 19.6, "unit": "min"}, {"measurement": "t (releasing time; time required to hydrolyze 50% of the aggregates)", "setting": "DNase I [2]", "result": 14.5, "unit": "min"}, {"measurement": "Tm (melting temperature of duplex DNA in the presence of endonuclease inhibitor)", "setting": "duplex DNA; Table 1", "result": 62.5, "unit": "°C"}, {"measurement": "Tm (melting temperature of duplex DNA in the presence of endonuclease inhibitor)", "setting": "duplex DNA; Table 2, at 260 nm", "result": 62.5, "unit": "°C"}]}
